Experimental data from patent publication US10610520B2, “Heterocyclic compound” (Takeda Pharmaceutical Company Limited, priority 2016, dated 2020).

Target: T1, His-hMAGL (recombinant polyhistidine tagged human MAGL protein) (Homo sapiens, UniProt Q99685)
T1 construct: made in house; host or cells: E. coli BL21(DE3)
T1 sequence (Q99685 1-303): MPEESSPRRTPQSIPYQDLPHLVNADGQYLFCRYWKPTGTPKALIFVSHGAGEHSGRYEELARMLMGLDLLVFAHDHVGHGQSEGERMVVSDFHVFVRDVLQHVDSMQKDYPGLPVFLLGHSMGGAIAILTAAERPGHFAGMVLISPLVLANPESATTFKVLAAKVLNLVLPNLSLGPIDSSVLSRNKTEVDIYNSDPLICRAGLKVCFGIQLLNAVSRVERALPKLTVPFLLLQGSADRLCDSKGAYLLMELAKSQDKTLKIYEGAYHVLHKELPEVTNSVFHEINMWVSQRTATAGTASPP
Assay: Measurement of MAGL inhibitory activity (arachidonic acid production from 2-arachidonylglycerol, RapidFire-mass spectrometry)
Format: biochemical
Conditions: MAGL inhibitory rate, test compound 10 μM, 60 min preincubation, 2-arachidonylglycerol substrate
Description: The His-hMAGL obtained above was diluted with enzyme reaction buffer (10 mM Tris-HCl, pH 7.5, 1 mM EDTA, 0.025 (w/v) % Triton X-100, 0.01% Bovine serum albumin) to a concentration of 7.5 ng/mL. […] Thereafter, to each well was added 5 μL of 150 μM 2-arachidonylglycerol (Tocris Bioscience), and the mixture was incubated at room temperature for 10 min. Then, 10 μL of 2% formic acid (Wako Pure Chemical Industries, Ltd.) was added to stop the reaction. Furthermore, acetonitrile (50 μL) containing 3 μM arachidonic acid-d8 (Cayman Chemical Company) was added and the mixture was stirred.
The amount of arachidonic acid in the obtained enzyme reaction mixture was calculated by measuring by RapidFire-mass spectrometry and correcting by the amount of arachidonic acid-d8. High Throughput online solid phase extraction was performed using RapidFire 300™ system (Agilent Technologies, Inc.). Samples were loaded on SPE C4 cartridge (Agilent Technologies, Inc.) and desalted with 0.2 (v/v) % acetic acid (Wako Pure Chemical Industries, Ltd.) in ultrapure water/acetonitrile (70/30, v/v) at a flow rate of 1.5 mL/min, eluted at a flow rate of 0.5 mL/min with 0.2 (v/v) % acetic acid dissolved in acetonitrile/ultrapure water (90/10, v/v), and injected into the mass spectrometry part. The injection needle was washed with ultrapure water (500 millisecond) and acetonitrile (500 millisecond) to minimize carry-over. […] The RapidFire300 system was controlled by RapidFire UI software version 3.6 (Agilent Technologies, Inc.).
The mass spectrometry of the resultant product was performed using API4000™ triple quadrupole mass spectrometer (AB SCIEX) equipped with an electrospray ion sauce (TurboIon Spray™) in a negative selected reaction monitoring (SRM) mode. The conditions of SRM are shown below. The parameters of the instrument were optimized as follows: capillary temperature 600° C., ion spray voltage −4.5 kV, collision gas 8, curtain gas 15 psi, ion source gas 1 60 psi, ion source gas 2 60 psi. The mass spectrometer was controlled by Analyst™ software version 1.5.1 (AB SCIEX). The peak area integration was analyzed using RapidFire integrator software version 3.6 (Agilent Technologies, Inc.).
MAGL inhibitory rate (%) was calculated according to the following calculation formula. (1-(arachidonic acid production amount of test compound addition group−arachidonic acid production amount of enzyme-free group)÷(arachidonic acid production amount of test compound-free group−arachidonic acid production amount of enzyme-free group))×100

| SMILES | inhibition at 10 µM |
| --- | --- |
| O=C1NC2(CCN(C(=O)c3sc4c(F)c(F)cc(Cl)c4c3Cl)C2)CO1 (centres unmarked) [Example 340, 7-((3,4-dichloro-6,7-difluoro-1-benzothiophen-2-yl)carbonyl)-3-oxa-1,7-diazaspiro[4.4]nonan-2-one] | 99% |
| Cc1ccc(-c2ccc3c(Cl)c(C(=O)N4CC5(CCC(=O)N5)C4)sc3c2)s1 [Example 232, 2-((3-chloro-6-(5-methyl-2-thienyl)-1-benzothiophen-2-yl)carbonyl)-2,5-diazaspiro[3.4]octan-6-one] | 99% |
| O=C1NC2(CCN(C(=O)c3sc4c(F)c(C(F)(F)F)ccc4c3C(F)F)C2)CO1 (centres unmarked) [Example 333, 7-((3-(difluoromethyl)-7-fluoro-6-(trifluoromethyl)-1-benzothiophen-2-yl)carbonyl)-3-oxa-1,7-diazaspiro[4.4]nonan-2-one] | 99% |
| O=C1NC2(CO1)CN(C(=O)c1sc3cc(F)cc(F)c3c1Cl)C2 [Example 362, 2-((3-chloro-4,6-difluoro-1-benzothiophen-2-yl)carbonyl)-7-oxa-2,5-diazaspiro[3.4]octan-6-one] | 100% |
| O=C1CCC2(CN(C(=O)c3ccc(-c4cccc(C(F)(F)F)c4)c(C(F)(F)F)c3)C2)N1 [Example 131, 2-((2,3′-bis(trifluoromethyl)biphenyl-4-yl)carbonyl)-2,5-diazaspiro[3.4]octan-6-one] | 99% |
| O=C1CCC2(CN(C(=O)N3CC(COc4ccc(F)cc4Cl)C3)C2)N1 [Example 34, 2-((3-((2-chloro-4-fluorophenoxy)methyl)azetidin-1-yl)carbonyl)-2,5-diazaspiro[3.4]octan-6-one] | 99% |
| O=C1NC2(CCN(C(=O)c3sc4c(F)c(OC(F)(F)F)cc(F)c4c3Cl)C2)CO1 (centres unmarked) [Example 336, 7-((3-chloro-4,7-difluoro-6-(trifluoromethoxy)-1-benzothiophen-2-yl)carbonyl)-3-oxa-1,7-diazaspiro[4.4]nonan-2-one] | 100% |
| COc1ccc(Cl)c(-c2ccc(C(=O)N3CC4(CCC(=O)N4)C3)cc2)c1 [Example 82, 2-((2′-chloro-5′-methoxybiphenyl-4-yl)carbonyl)-2,5-diazaspiro[3.4]octan-6-one] | 93% |
| O=C1CCC2(CN(C(=O)N3CC(OCc4ccc(C(F)(F)F)cc4F)C3)C2)N1 [Example 9, 2-((3-((2-fluoro-4-(trifluoromethyl)benzyl)oxy)azetidin-1-yl)carbonyl)-2,5-diazaspiro[3.4]octan-6-one] | 98% |
| O=C1CCC2(CN(C(=O)c3sc(-c4cccc(OCC5CC5)c4)cc3Cl)C2)N1 [Example 182, 2-((3-chloro-5-(3-(cyclopropylmethoxy)phenyl)-2-thienyl)carbonyl)-2,5-diazaspiro[3.4]octan-6-one] | 98% |
| O=C1NC2(CCN(C(=O)c3sc4cc(OC(F)(F)F)ccc4c3Cl)C2)CO1 (centres unmarked) [Example 321, 7-((3-chloro-6-(trifluoromethoxy)-1-benzothiophen-2-yl)carbonyl)-3-oxa-1,7-diazaspiro[4.4]nonan-2-one] | 100% |
| O=C1NC2(CO1)CN(C(=O)c1sc3cc(OCC(F)(F)F)ccc3c1Cl)C2 [Example 287, 2-((3-chloro-6-(2,2,2-trifluoroethoxy)-1-benzothiophen-2-yl)carbonyl)-7-oxa-2,5-diazaspiro[3.4]octan-6-one] | 101% |
| O=C1CCC2(CN(C(=O)c3sc4cc(Br)ccc4c3Cl)C2)N1 [Example 35, 2-((6-bromo-3-chloro-1-benzothiophen-2-yl)carbonyl)-2,5-diazaspiro[3.4]octan-6-one] | 99% |
| O=C1CCC2(CN(C(=O)c3sc4cc(-c5ccc(C(F)F)cc5)ccc4c3Cl)C2)N1 [Example 219, 2-((3-chloro-6-(4-(difluoromethyl)phenyl)-1-benzothiophen-2-yl)carbonyl)-2,5-diazaspiro[3.4]octan-6-one] | 94% |
| O=C1CCC2(CN(C(=O)c3ccc(-c4ccccc4)s3)C2)N1 [Example 126, 2-((5-phenyl-2-thienyl)carbonyl)-2,5-diazaspiro[3.4]octan-6-one] | 85% |
| O=C1NC2(CO1)CN(C(=O)c1sc3cc(Cl)cc(Cl)c3c1Cl)C2 [Example 308, 2-((3,4,6-trichloro-1-benzothiophen-2-yl)carbonyl)-7-oxa-2,5-diazaspiro[3.4]octan-6-one] | 101% |
| O=C1NC2(CO1)CN(C(=O)c1sc3c(F)ccc(OC(F)(F)F)c3c1Cl)C2 [Example 301, 2-((3-chloro-7-fluoro-4-(trifluoromethoxy)-1-benzothiophen-2-yl)carbonyl)-7-oxa-2,5-diazaspiro[3.4]octan-6-one] | 100% |

Continued, values first:

| inhibition at 10 µM | SMILES |
| --- | --- |
| 98% | O=C1CCC2(CN(C(=O)c3sc(-c4cccc(C(F)(F)F)c4)cc3Cl)C2)N1 [Example 177, 2-((3-chloro-5-(3-(trifluoromethyl)phenyl)-2-thienyl)carbonyl)-2,5-diazaspiro[3.4]octan-6-one] |
| 100% | O=C1NC2(CO1)CN(C(=O)c1sc3cc(OC(F)(F)F)ccc3c1C(F)F)C2 [Example 264, 2-((3-(difluoromethyl)-6-(trifluoromethoxy)-1-benzothiophen-2-yl)carbonyl)-7-oxa-2,5-diazaspiro[3.4]octan-6-one] |
| 100% | O=C1COCC2(CCN(C(=O)c3sc4cc(OC(F)(F)F)ccc4c3Cl)C2)N1 (centres unmarked) [Example 273, 2-((3-chloro-6-(trifluoromethoxy)-1-benzothiophen-2-yl)carbonyl)-9-oxa-2,6-diazaspiro[4.5]decan-7-one] |
| 99% | O=C1CCC2(CN(C(=O)c3ccc(-c4cccc(C(F)(F)F)c4)c(OC(F)(F)F)c3)C2)N1 [Example 132, 2-((2-(trifluoromethoxy)-3′-(trifluoromethyl)biphenyl-4-yl)carbonyl)-2,5-diazaspiro[3.4]octan-6-one] |
| 97% | O=C1CCC2(CN(C(=O)c3ccc(-c4ccc5sncc5c4)cc3)C2)N1 [Example 72, 2-(4-(1,2-benzothiazol-5-yl)benzoyl)-2,5-diazaspiro[3.4]octan-6-one] |
| 100% | O=C1CCC2(CN(C(=O)c3sc4cc(-c5cccc(F)c5Cl)ccc4c3Cl)C2)N1 [Example 220, 2-((3-chloro-6-(2-chloro-3-fluorophenyl)-1-benzothiophen-2-yl)carbonyl)-2,5-diazaspiro[3.4]octan-6-one] |
| 92% | O=C1CCC2(CN(C(=O)c3ccc(-c4cc(F)ccc4Cl)cc3)C2)N1 [Example 79, 2-((2′-chloro-5′-fluorobiphenyl-4-yl)carbonyl)-2,5-diazaspiro[3.4]octan-6-one] |
| 99% | Cc1c(C(=O)N2CC3(CCC(=O)N3)C2)sc2cc(C(F)(F)F)ccc12 [Example 366, 2-((3-methyl-6-(trifluoromethyl)-1-benzothiophen-2-yl)carbonyl)-2,5-diazaspiro[3.4]octan-6-one] |
| 100% | O=C1NC2(CO1)CN(C(=O)c1sc3cc(OC(F)(F)F)cc(C(F)F)c3c1Cl)C2 [Example 316, 2-((3-chloro-4-(difluoromethyl)-6-(trifluoromethoxy)-1-benzothiophen-2-yl)carbonyl)-7-oxa-2,5-diazaspiro[3.4]octan-6-one] |
| 101% | CC(Oc1ccc(C(F)(F)F)cc1F)C1CN(C(=O)N2CC3(CCC(=O)N3)C2)C1 (centres unmarked) [Example 10, 2-((3-(1-(2-fluoro-4-(trifluoromethyl)phenoxy)ethyl)azetidin-1-yl)carbonyl)-2,5-diazaspiro[3.4]octan-6-one] |
| 100% | Cc1cc(C(F)(F)F)cc2sc(C(=O)N3CCC4(COC(=O)N4)C3)c(Cl)c12 (centres unmarked) [Example 341, 7-((3-chloro-4-methyl-6-(trifluoromethyl)-1-benzothiophen-2-yl)carbonyl)-3-oxa-1,7-diazaspiro[4.4]nonan-2-one] |
| 99% | O=C1CCC2(CN(C(=O)c3sc4cc(-c5ccc(F)cc5)ccc4c3Cl)C2)N1 [Example 36, 2-((3-chloro-6-(4-fluorophenyl)-1-benzothiophen-2-yl)carbonyl)-2,5-diazaspiro[3.4]octan-6-one] |
